For series [1], the system named is U251MG cells. In words: GFP transfection of U251MG cells (FACS). The conditions noted are these: PEIMAX/PMAXGFP N/P=10; 10 μM Tubastatin A, 5 μM SAHA. It counts as cell-based. As to the method:
Furthermore, representative images of the FACS analysis and transfected cells for each conditions are presented. Error bar represents the standard error mean (S.E.M.) of n=3. […] Next, cells were harvested and GFP expressions were analysed by FACS analysis.

In series [2] the test system is U251MG cells. In words: Viable cell number after p53 transfection with transfection enhancers. In kind it is cell-based. As to conditions: for cell death / cell number with p53 transfection: pEGFP-N1-p53, 10 μM Tubastatin A, 5 μM SAHA.
Another series concerns PC3 cells. Description: GFP transfection of PC3 cells (FACS). As to conditions: PEIMAX/PMAXGFP N/P=20. It counts as cell-based, human. As to the method: Next, cells were harvested and GFP expression was analysed by FACS analysis. […] Representative images of the FACS analysis and transfected cells of each condition are presented. Error bar represents the standard error mean (S.E.M.) of n=3.

In a further series the test system is acetylated α-tubulin. Description: Tubulin acetylation immunostaining. In kind it is cell-based. The conditions noted are these: for tubulin acetylation: differentiated Neuro2A, 2 h, Tubastatin A 10 μM, TSA 50 nM, Paclitaxel 25 nM, SAHA 5 μM, Entinostat 10 μM, Tacedinaline 50 μM. The protocol: Then, cells were fixed with 4% formaldehyde and co-stained for acetylated α-tubulin and β-tubulin. Confocal images of the individual and merged channels are shown. Bar represents 20 μm. Further, a table is presented, showing the reagents and their respective targets, as well as the concentration at which the experiment was done.
FIG. 35 depicts micrographs showing the transient effect of Tubastatin A on tubulin acetylation. Neuro2a cells were treated with Tubastatin A (10 μM) for 12 hours. Then, chemicals were removed by replacement with complete media and cells were further incubated for 48 h. At various time points, cells were fixed with 4% formaldehyde and stained for acetylated α-tubulin (Green) and nucleus (Hoechst stain, Blue). Representative images were shown. Bar represents 20 μm.
Control and 10 μM differentiated Neuro2a Cells were fixed with 4% formaldehyde in 1×PBS for 20 min at room temperature and subsequently permeabilized in 0.5% Triton-X100 in 1×PBS. Then, the samples fixed cells were blocked with normal goat serum (1:10; Dako, Glostrup, Denmark) in 0.1% Triton X-100/1×PBS for 30 min at 37° C. The cells were then incubated with primary antibodies against acetylated α-Tubulin (Sigma Aldrich T7451, 1:200 dilution) or TuJ (R&D Systems MAB1195, 1:50 dilution) in 0.1% TritonX-100/1% BSA/1×PBS at 37° C. for 2 h and washed three times in 1×PBS. […] The cells were washed three times in 1×PBS and mounted. Image acquisition was performed using the Zeiss LSM710 with Axio Observer.Z1 confocal microscope system (Oberkochen, Germany). All images were taken with identical laser and optical settings.

Series [3] concerns human fetal MSC cells. In words: BMP2 expression in human MSC (qPCR). It counts as cell-based. As to conditions: PEIMAX/PMAXGFP-BMP2 N/P=10; 3 day post transfection; 5 μM Tubastatin A, 150 nM TSA.
A further series deals with HDAC1 (Homo sapiens, UniProt Q13547). The conditions noted are these: Targeted HDAC/Sirtuin: 1; cited from earlier work.
Chain of HDAC1 (Q13547 whole entry, species assumed): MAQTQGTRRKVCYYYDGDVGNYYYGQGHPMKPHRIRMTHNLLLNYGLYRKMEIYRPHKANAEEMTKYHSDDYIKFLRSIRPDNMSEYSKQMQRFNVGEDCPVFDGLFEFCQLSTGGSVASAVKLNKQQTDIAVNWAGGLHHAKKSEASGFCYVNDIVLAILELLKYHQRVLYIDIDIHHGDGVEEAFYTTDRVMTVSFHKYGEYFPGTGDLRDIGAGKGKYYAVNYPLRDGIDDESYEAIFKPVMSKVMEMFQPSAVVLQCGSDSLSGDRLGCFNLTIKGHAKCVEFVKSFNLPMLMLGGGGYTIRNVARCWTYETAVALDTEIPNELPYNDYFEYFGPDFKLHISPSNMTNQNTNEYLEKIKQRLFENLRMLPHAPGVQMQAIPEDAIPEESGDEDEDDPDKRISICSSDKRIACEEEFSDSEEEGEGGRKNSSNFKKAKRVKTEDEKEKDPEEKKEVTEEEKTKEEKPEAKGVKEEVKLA
For a further series, the system named is Neuro2A cells. It counts as cell-based. The conditions noted are these: for uptake of polyplex: inhibitor 45 min prior transfection, LPEI/pDNA N/P=20, 4 h; for cell death at the concentrations used: Dynasore 30 μg/ml, Filipin III 5 μg/ml, Rottlerin […]. As to the method: A. Native and differentiated (10 μM RA) Neuro2a was treated with 2.5 μg/ml rottlerin, 5 μg/ml Filipin III or 30 μg/ml Dynasore for 45 min prior transfection. DMSO/0.5% FBS was used as control for treatment. After transfection with polyplex (N/P=20), cells were incubated at 4° C. or 37° C. for 4 h. Extracellular pDNA was removed by pAA/DNAse and cells were trypsinized. Then, samples were treated with pAA/urea lysis buffer and the absolute copy number of pDNA was quantified by qPCR. In similar experiments, native Neuro2A cells were incubated at 37° C. for 24 h post transfection. B. Representative fluorescent images (bottom rows), acquired 48 h post transfection. C. Percentage of cells expressing EGFP was counted. Significant differences in transfection efficiencies were calculated using the two tailed student's t-test. The data shown were the mean±s.e.m., n=4. *, p<0.05; **, p<0.005.
For studies using inhibitors, cells were incubated with Dynasore (30 μg/ml), Filipin III (5 μg/ml) or Rottlerin (2.5 μg/ml) in DMEM (0.5% FBS) for 45 min prior transfection. Cells were further incubated in DMEM (0.5% FBS) containing corresponding inhibitors post transfection.
To quantify DNA internalized by the cells, the supernatant was removed and the cells were washed once with 1×PBS and incubated in DMEM containing pAA/DNAse for 2 h at 4° C. Next, the cells were trypsinized and treated with pAA/urea lysis buffer. Efficiency of DNA release by pAA/urea lysis buffer and pAA/DNase was evaluated (Supplementary FIGS. 15 & 18). […] Primers specific for EGFP, forward primer (5′-3′, […]; SEQ ID NO:1) and reverse primer (5′-3′, […]; SEQ ID NO:2) were used. PCR quantification of the pDNA was performed as previously described (Yoong, L.F., G. Wan, and H.P. Too. Mol Cell Neurosci, 2009. 41(4): p. 464-73). The absolute amount of pDNA was determined using plasmid standards by interpolation.

The test system of series [4] is human fetal MSC cells. In words: GFP transfection of human fetal MSC. The conditions noted are these: PEIMAX/PMAXGFP N/P=10; 100 nM Trichostatin A. In kind it is cell-based. The protocol: Next, cells were harvested and GFP expressions were analysed by FACS analysis. Graph represents % of GFP+ cells. Error bar represents the standard error mean (S.E.M.) of n=3. Statistical significance of transfection efficiencies between cells exposed to polyplexes only and other conditions were obtained using two tailed student's t-test; *, p<0.01. Representative images of the transfected cells of each condition are presented.
Human fetal MSC cells were transfected with PEIMAX/PMAXGFP complex at N/P=10. […] Three days after transfection, media was replaced with fresh culture media. Bright field and fluorescent images were taken at Day 2, 7, 14 and 21 days post transfection. Representative imaged are presented.

For the next series, the target named is T1, HDAC6 (Homo sapiens, UniProt Q9UBN7).
T1 sequence (Q9UBN7 1-1215): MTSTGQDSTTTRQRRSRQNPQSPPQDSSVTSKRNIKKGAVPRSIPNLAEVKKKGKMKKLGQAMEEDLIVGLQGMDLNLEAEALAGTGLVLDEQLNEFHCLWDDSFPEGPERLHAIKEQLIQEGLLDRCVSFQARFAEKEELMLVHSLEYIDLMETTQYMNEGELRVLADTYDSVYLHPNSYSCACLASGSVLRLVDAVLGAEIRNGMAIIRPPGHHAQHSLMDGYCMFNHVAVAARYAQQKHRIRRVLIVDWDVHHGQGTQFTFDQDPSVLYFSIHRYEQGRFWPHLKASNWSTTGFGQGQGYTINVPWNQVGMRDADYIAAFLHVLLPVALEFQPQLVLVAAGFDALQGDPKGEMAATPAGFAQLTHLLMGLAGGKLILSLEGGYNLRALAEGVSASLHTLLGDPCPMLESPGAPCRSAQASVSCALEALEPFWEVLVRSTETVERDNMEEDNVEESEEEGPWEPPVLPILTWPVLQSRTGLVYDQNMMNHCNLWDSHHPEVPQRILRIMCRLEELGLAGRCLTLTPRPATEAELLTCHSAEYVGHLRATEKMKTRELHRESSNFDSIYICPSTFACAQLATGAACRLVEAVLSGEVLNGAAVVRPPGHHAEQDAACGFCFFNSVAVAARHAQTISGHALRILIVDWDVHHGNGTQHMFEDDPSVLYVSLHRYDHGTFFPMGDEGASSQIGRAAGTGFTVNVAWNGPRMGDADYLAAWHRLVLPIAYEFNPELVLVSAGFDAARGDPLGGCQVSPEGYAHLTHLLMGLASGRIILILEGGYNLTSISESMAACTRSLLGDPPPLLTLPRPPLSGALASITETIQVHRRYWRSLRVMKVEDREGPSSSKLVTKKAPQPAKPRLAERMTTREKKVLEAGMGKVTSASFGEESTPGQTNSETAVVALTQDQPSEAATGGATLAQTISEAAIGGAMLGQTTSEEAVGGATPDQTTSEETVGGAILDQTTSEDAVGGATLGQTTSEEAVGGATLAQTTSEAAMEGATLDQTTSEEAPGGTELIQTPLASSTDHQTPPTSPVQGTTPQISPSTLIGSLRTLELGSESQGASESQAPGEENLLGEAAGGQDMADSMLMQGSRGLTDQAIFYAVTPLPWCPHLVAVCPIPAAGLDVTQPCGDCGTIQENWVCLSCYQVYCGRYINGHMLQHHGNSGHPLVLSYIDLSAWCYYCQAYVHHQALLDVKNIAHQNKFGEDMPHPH
As to conditions: Targeted HDAC/Sirtuin: 6; cited from earlier work.

The next series deals with HDAC3 (Homo sapiens, UniProt O15379). The conditions noted are these: Targeted HDAC/Sirtuin: 3; cited from earlier work.
Chain of HDAC3 (O15379 whole entry): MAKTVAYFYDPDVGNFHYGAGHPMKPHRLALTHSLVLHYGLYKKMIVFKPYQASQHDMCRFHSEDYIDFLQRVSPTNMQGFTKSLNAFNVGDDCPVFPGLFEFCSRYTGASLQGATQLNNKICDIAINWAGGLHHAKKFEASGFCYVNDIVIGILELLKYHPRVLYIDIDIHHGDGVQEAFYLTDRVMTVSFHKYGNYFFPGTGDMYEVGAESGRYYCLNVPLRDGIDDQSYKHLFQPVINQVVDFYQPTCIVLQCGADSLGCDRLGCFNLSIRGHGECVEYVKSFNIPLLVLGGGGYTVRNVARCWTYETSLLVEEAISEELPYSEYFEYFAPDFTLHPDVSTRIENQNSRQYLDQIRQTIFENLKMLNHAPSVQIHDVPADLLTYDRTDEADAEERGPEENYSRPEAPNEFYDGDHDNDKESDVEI
Chain of HDAC3 (Q9Y618 395-489 partner limits assumed): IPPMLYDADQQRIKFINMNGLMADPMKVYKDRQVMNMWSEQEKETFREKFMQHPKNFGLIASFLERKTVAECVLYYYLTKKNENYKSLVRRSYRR
A further series deals with MICA and NKG2D. Description: MICA and NKG2D expression in PC3 cells (PCR). It counts as cell-based, human. As to conditions: 5 μM SAHA, up to 48 hours. As to the method: At the end of the incubation, the cells were collected and subjected to PCR analysis. […] The histogram here represented fold change to control after normalization with GAPDH.
The subject of series [5] is differentiated Neuro2A cells. In words: Transfection efficiency (EGFP positive cells) of differentiated Neuro2A. The conditions noted are these: LPEI/pDNA N/P=20; chloroquine 25 or 100 μM, PLUS 10 or 20 μL, INF7 10 or 20 μg; 48 h. It counts as cell-based.
The mark [6] stands for this setting: differentiated (10 μM RA) Neuro2A.

The values that follow come from US10100331B2, “Reagent for gene-drug therapeutics” (Agency for Science, Technology and Research, priority 2012, dated 2018).

Where two headings read alike, the source gives them in different places.

Turning to `CN1CCc2c(c3ccccc3n2Cc2ccc(C(=O)NO)cc2)C1` [Tubastatin A], the transfection efficiency entry in the series on U251MG cells [1] was “significant enhancement in transfection efficiency”. For the same compound, the “cell death / cell number with p53 transfection” value in the series with U251MG cells [2] is listed as “did not result in greater reduction of cell number”. Also, the enhancement of transfection result in the series on PC3 cells was “significant enhancement of transfection”. Also, in the series with acetylated α-tubulin (Neuro2a, Tubastatin A 10 μM for 12 hours then washout), the “duration of effect on tubulin acetylation” value is recorded as less than 24 h. The tubulin acetylation result in the series on acetylated α-tubulin is listed as “markedly enhanced tubulin acetylation”. For the same compound, the “BMP2 expression, fold over the negative control” value with human fetal MSC cells [3] is ~20,000 fold.
With `CC(=O)Nc1ccc(C(=O)Nc2ccccc2N)cc1` [Tacedinaline], the tubulin acetylation entry in the series on acetylated α-tubulin is reported as “not”.
By IC50 is commonly meant the point on the concentration scale where inhibition reaches its midpoint. Consider `C/C=C1\NC(=O)[C@H]2CSSCC/C=C/[C@H](CC(=O)N[C@H](C(C)C)C(=O)N2)OC(=O)[C@H](C(C)C)NC1=O` [Romidepsin], for which the IC50 at HDAC1 is 80 nM.
Take `CC(=O)O[C@H]1C(=O)[C@@]2(C)[C@H]([C@H](OC(=O)c3ccccc3)[C@]3(O)C[C@H](OC(=O)[C@H](O)[C@@H](NC(=O)c4ccccc4)c4ccccc4)C(C)=C1C3(C)C)[C@]1(OC(C)=O)CO[C@@H]1C[C@@H]2O` [paclitaxel]: the tubulin acetylation entry in the series on acetylated α-tubulin is recorded as “markedly enhanced tubulin acetylation”.
Take `O=C(N/N=C/c1ccc(O)c(O)c1)c1cc2ccccc2cc1O` [Dynasore]: the uptake of polyplex result with Neuro2A cells (setting [6]) and in the series on Neuro2A cells (native Neuro2A) was “significantly inhibited the uptake of polyplex” each time.
On to `CCCCC[C@@H](O)[C@H]1C(=O)O[C@H](C)[C@@H](O)/C=C/C=C/C=C/C=C/C=C(\C)[C@@H](O)C[C@H](O)C[C@H](O)C[C@H](O)C[C@H](O)C[C@H](O)C[C@@H]1O` [Filipin III], for which, in the series with Neuro2A cells, the “cell death at the concentrations used” value is listed as “no evidence of cell death”. For the same compound, the uptake of polyplex result in the series on Neuro2A cells (setting [6]) and in the series on Neuro2A cells (native Neuro2A) was “did not affect polyplex uptake” in each case.
For the compound `Nc1ccccc1NC(=O)c1ccc(CNC(=O)OCc2cccnc2)cc1` [Entinostat], the tubulin acetylation result in the series on acetylated α-tubulin is reported as “not”.
Consider `CC(/C=C/C(=O)NO)=C\[C@@H](C)C(=O)c1ccc(N(C)C)cc1` [Trichostatin A], for which the enhancement of transfection entry with human fetal MSC cells [4] and with PC3 cells was “significant enhancement of transfection” each time. The tubulin acetylation result with acetylated α-tubulin is “markedly enhanced tubulin acetylation”.
As for `O=C(/C=C/c1cccc(S(=O)(=O)Nc2ccccc2)c1)NO` [Belinostat], the IC50 on HDAC6 was 410 nM.
Regarding MC-1293, the half-inhibitory concentration (IC50) at HDAC3 is 288000 nM.
In the case of `O=C(CCCCCCC(=O)Nc1ccccc1)NO` [SAHA, vorinostat], in the series with MICA and NKG2D, the “expression of MICA and NKG2D” value was “induced up-regulation of MICA and NKG2D”. Also, in the series on U251MG cells [2] (p53, DOPE/CHEMS, 5 μM SAHA for 48, 72 and 96 h), the “cell number on increasing duration of incubation with SAHA” value is “did not further reduce the cell number”. Further, in the series with U251MG cells [2], the “cell death / cell number with p53 transfection” value is “resulted in more cell death”. Besides, in the series on acetylated α-tubulin, the tubulin acetylation entry was “markedly enhanced tubulin acetylation”.
Turning to `CC(=O)c1c(O)c(C)c(O)c(Cc2c(O)c3c(c(C(=O)/C=C/c4ccccc4)c2O)OC(C)(C)C=C3)c1O` [Rottlerin], the “cell death at the concentrations used” value in the series with Neuro2A cells is on record as “no evidence of cell death”. In addition, the uptake of polyplex result is “not in differentiated cells” in the series on Neuro2A cells (setting [6]) and “reduced the uptake of polyplex significantly” in the series on Neuro2A cells (native Neuro2A).
Turning to `CCN(CC)CCCC(C)Nc1ccnc2cc(Cl)ccc12` (stereo not shown) [chloroquine], the “enhancement of transfection, reagent added post-transfection” value in series [5] is “did not show cumulative enhancement of transfection”.
